Assay results as given in patent US6951887B2 (The Research Foundation of State University of New York, priority 1998, dated 2005).

Key:
Hep G2 = assay: killing of cultured cells, Hep G2; type: cell-based; parameters: key to cells killed by treatment: “+” indicates that the cells were killed by treatment; “−” indicates that they were not; “+/−” indicates a slow marginal response seen only in a few special cases with fibroblasts experimentally transformed by introduction of the ras oncogene; conditions: Hep G2; compound at two to fourfold above its threshold killing concentration
From the text: (§1) Table 1: Summarized are the responses of cells in culture to killing by example members of the family of blocked lipoate derivatives that are the object of this invention as well as one control compound (dihydroxyoctanoic acid). At right is indicated the specific cell line followed by the tissue of origin of the cell line. Across the top are listed the specific compounds tested. Each blocked lipoate derivative was used at two to fourfold above its threshold killing concentration. [These concentrations range form 0.15 mM (60 ug/ml or 60 mg/kg) to 2.5 mM (800 ug/ml or 800 mg/kg) (see EXAMPLE 11).] […] “+/−” indicates a slow marginal response seen only in a few special cases with fibroblasts experimentally transformed by introduction of the ras oncogene (EXAMPLE 10).
(§2) First, each cell type to be tested was plated at low densities in the wells of a standard 6×24 well tissue culture plate. (Multiple wells are seeded for each cell type.)
(§3) Second, the cells were allowed to grow to moderate densities. Transformed cells are in contact and non-transformed cells are contact-inhibited under these conditions.
(§4) Third, the lipoate derivatives to be tested were added to individual wells. In these experiments each compound was added at two to fourfold above the threshold killing concentration for cancer cells (EXAMPLE 11).
(§5) Fourth, cells were monitored over the next several days.

SW480 (Colon) = assay: killing of cultured cells, SW480; type: cell-based; parameters: key: “+” indicates that the cells were killed by treatment; “−” indicates that they were not; “+/−” indicates a slow marginal response seen only in a few special cases with fibroblasts experimentally transformed by introduction of the ras oncogene; conditions: compound at two to fourfold above its threshold killing concentration
From the text: as §1, §2, §3, §4, §5

A549 (Lung) = assay: killing of cultured cells, A549; type: cell-based; parameters: key to cells killed by treatment: “+” indicates that the cells were killed by treatment; “−” indicates that they were not; “+/−” indicates a slow marginal response seen only in a few special cases with fibroblasts experimentally transformed by introduction of the ras oncogene; conditions: A549, Lung; compound at two to fourfold above its threshold killing concentration
From the text: as §1, §2, §3, §4, §5

LnCap (Prostate) = assay: killing of cultured cells, LnCap; type: cell-based; parameters: key: “+” indicates that the cells were killed by treatment; “−” indicates that they were not; “+/−” indicates a slow marginal response seen only in a few special cases with fibroblasts experimentally transformed by introduction of the ras oncogene; conditions: compound at two to fourfold above its threshold killing concentration
From the text: as §1, §2, §3, §4, §5

MCF 7 (Breast) = assay: killing of cultured cells, MCF 7; type: cell-based; parameters: key: “+” indicates that the cells were killed by treatment; “−” indicates that they were not; “+/−” indicates a slow marginal response seen only in a few special cases with fibroblasts experimentally transformed by introduction of the ras oncogene; conditions: compound at two to fourfold above its threshold killing concentration
From the text: as §1, §2, §3, §4, §5

HeLa (Cervix) = assay: killing of cultured cells, HeLa; type: cell-based; parameters: key to cells killed by treatment: “+” indicates that the cells were killed by treatment; “−” indicates that they were not; “+/−” indicates a slow marginal response seen only in a few special cases with fibroblasts experimentally transformed by introduction of the ras oncogene; conditions: Cervix, compound at two to fourfold above its threshold killing concentration
From the text: as §1, §2, §3, §4, §5

B16 (Skin) = assay: killing of cultured cells, B16; type: cell-based; parameters: key: “+” indicates that the cells were killed by treatment; “−” indicates that they were not; “+/−” indicates a slow marginal response seen only in a few special cases with fibroblasts experimentally transformed by introduction of the ras oncogene; conditions: compound at two to fourfold above its threshold killing concentration
From the text: as §1, §2, §3, §4, §5

RD (Embryo) = assay: killing of cultured cells, RD; type: cell-based; parameters: key to cells killed by treatment: “+” indicates that the cells were killed by treatment; “−” indicates that they were not; “+/−” indicates a slow marginal response seen only in a few special cases with fibroblasts experimentally transformed by introduction of the ras oncogene; conditions: RD, Embryo; compound at two to fourfold above its threshold killing concentration
From the text: as §1, §2, §3, §4, §5

Saos 2 (Bone) = assay: killing of cultured cells, Saos 2; type: cell-based; parameters: key: “+” indicates that the cells were killed by treatment; “−” indicates that they were not; “+/−” indicates a slow marginal response seen only in a few special cases with fibroblasts experimentally transformed by introduction of the ras oncogene; conditions: compound at two to fourfold above its threshold killing concentration
From the text: as §1, §2, §3, §4, §5

NIH 3T3 ras transformed = assay: killing of cultured cells, ras-transformed NIH 3T3 (T24); type: cell-based; parameters: key to cells killed by treatment: “+” indicates that the cells were killed by treatment; “−” indicates that they were not; “+/−” indicates a slow marginal response seen only in a few special cases with fibroblasts experimentally transformed by introduction of the ras oncogene; conditions: NIH 3T3 ras transformed; compound at two to fourfold above its threshold killing concentration
From the text: as §1, §2, §3, §4, §5
NIH-3T3 cells are relatively normal, noncancerous cells. However, if an activated allele of the ras oncogene is introduced into these cells they become highly malignant (cancerous) as assessed by several assays (REFERENCE).

cancer cells in culture = assay: threshold killing concentration and dose response in cultured cells; type: cell-based; conditions: for threshold killing concentration: approximate center of a range extending two to threefold
From the text: First, each compound killed cancer cells in culture at or above a relatively narrow, specific concentration range, but not below. The threshold concentrations given below represent the approximate center of this range which extended roughly two to threefold. […] Below these saturation ranges, sensitive cells survived and grew. They could be removed and replated to grow, apparently indefinitely, under these conditions. […] This was a highly unusual dose/response profile. The threshold killing concentrations (ranges) varied between individual compounds. Examples of these threshold killing concentrations were as follows: bis-benzoyl lipoate (EXAMPLE 3) 60 mg/liter (60 mg/kg), monoacetyl lipoate (EXAMPLE 4) 100 mg/liter (100 mg/kg); bis-acetyl lipoate (EXAMPLE 2) 600 mg/liter (600 mg/kg).
These changes were ultimately followed by cell death if treatment was continued. However, these morphological changes were reversed, and the cells recovered, if the lipoate derivative was removed during this initial exposure. As with the dose/response profile of the preceeding paragraph, this reversible induction of morphological change followed by commitment to cell death is highly idiosyncratic. The discovery that this behavior was shown by all tested members of the class of compounds that are the object of this invention was, again, very strong evidence that these compounds are, in fact, a functionally coherent class.

[1] = nonspecific toxicity by intraperitoneal injection; conditions: C57/BL, mouse, in vivo, ip
Experimental: (§6) (All studies described in this section were carried out by intraperitoneal (IP) injection into C57/BL mice.)

C57/BL mice = assay: nonspecific toxicity by intraperitoneal injection; conditions: mouse, in vivo, ip
Experimental: as §6

B-16 melanoma = assay: B-16 system, subcutaneous tumors; type: in vivo, mouse; conditions: 100 mg/kg twice daily, started at tumors ca. 3-5 mm
From the text: The B-16 melanoma strain was introduced either subcutaneously or intraperitoneally into individuals of the C57/BL syngeneic mouse strain (7). When left untreated such mice develop massive tumors in the immediate area of injection as well as secondary metastases throughout the animal—including in the liver and the lungs. These malignant growths result in the early death of the animals. Moreover, the resulting malignant growths are made up of darkly pigmented malignant melanocytes—making their assessment convenient and highly reliable. We will henceforth refer to this as the “B-16 system”.
Second, a group of animals were injected at a subcutaneous site with B-16 cells. […] As this time, one group oL animals (experimentals) began a twice-daily series of injections of the bis-acetyl lipoate derivative (100 mg/kg in 100 ul of isotonic saline) and a second set (controls) of corresponding injections of the saline solvent alone. [See EXAMPLES 2, 8 and 11 for the details of bis-acetyl lipoate derivative.]
Third, in several animals subcutaneous tumors were produced as in the preceding paragraph. After the tumors had grown to visible, palpable size, these animals received both a twice daily IP (systemic) dose of 50 mg/kg of bis-benzoyl lipoate as well as a twice daily direct injection a second dose of the same volume directly into the tumor mass.

HeLa cells = assay: killing of HeLa cells with or without dichloroacetate (DCA); type: cell-based; conditions: compound ca. twofold above threshold killing dose plus 5 mM DCA
Experimental: HeLa cells were plated at moderate densities and allowed to attach and grow for ca. 24 hours in a series of wells in a multi-well tissue culture plate. To individual wells of the first subset (control) were added bis-acetyl lipoate, mono-acetyl lipoate or bis-benzoyl lipoate—each at ca. twofold above the threshold killing dose (EXAMPLE 11). To an equivalent (experimental) subset of wells were added these same compounds at the same dose together with the simultaneous addition of DCA to 5 mM final concentration.

| SMILES | cells killed by treatment (Hep G2) | cells killed by treatment (SW480 (Colon)) | cells killed by treatment (A549 (Lung)) | cells killed by treatment (LnCap (Prostate)) | cells killed by treatment (MCF 7 (Breast)) | cells killed by treatment (HeLa (Cervix)) | cells killed by treatment (B16 (Skin)) | cells killed by treatment (RD (Embryo)) | cells killed by treatment (Saos 2 (Bone)) | cells killed by treatment (NIH 3T3 ras transformed) | threshold killing concentration (cancer cells in culture) [mg/L] | LD50 [1] [mg/kg] | maximum well-tolerated dose (C57/BL mice) | response of subcutaneous tumor (B-16 melanoma) | speed of cell killing with DCA relative to compound alone (HeLa cells) | effect on cells in culture (cancer cells in culture; tested up to 5 mM (3200 ug/ml), cell lines of Table 1) |
| --- | --- | --- | --- | --- | --- | --- | --- | --- | --- | --- | --- | --- | --- | --- | --- | --- |
| NC(=O)CSCCC(CCCCC(=O)O)SCC(N)=O (centres unmarked) [bis carbamoyl lipoate, 6,8-Biscarbamoylmethylmercaptooctanoic acid] | + | – | – | – | – | – | – | – | – | – | – | – | – | – | – | – |
| CN1C(=O)CC(SCCC(CCCCC(=O)O)SC2CC(=O)N(C)C2=O)C1=O (stereo not drawn) [bis methyl sucimimido lipoate, 6,8-Bis-[S-(N-methylsuccinimido)]mercaptooctanoic acid] | + | + | + | + | + | + | + | + | + | – | – | – | – | – | – | – |
| CC(=O)SCCC(CCCCC(=O)O)SC(C)=O (centres unmarked) [bis-acetyl lipoate, 6,8-bisacetylmercaptooctanoic acid] | + | + | + | + | + | + | + | + | + | +/− | 600 | ~500 | ca. 200 mg/kg | palpable softening and apparently partial liquification of the tumor mass followed by a stabilization or a reduction in size | approximately twvice as rapidly | – |
| O=C([O-])CCCCC(O)CCO.[Na+] (centres unmarked) [dihydroxy octanoic acid, Sodium 6,8-Dihydroxyoctanoate, reference compound] | – | – | – | – | – | – | – | – | – | – | – | – | – | – | – | without detectable effect |
| CC(=O)SCCC(S)CCCCC(=O)O (centres unmarked) [monoacetyl lipoate, 8-acetylmercapto-6-mercaptooctanoic acid] | + | + | + | + | + | + | + | + | + | + | 100 | – | – | – | approximately twvice as rapidly | – |
